These results are taken from patent US8431170B2, “Antimicrobial composition with low cytotoxicity” (Oy Granula AB Ltd., priority 2008, dated 2013).

The nature of data set [1]: Antioxidative capacity: inhibition of the peroxidation of lipids. It counts as biochemical. The conditions noted are these: pure polyphenols isolated from wood material. The text has this:
In Tables 4A, 4B, 4C and 4D, there are represented antioxidative and free radical capturing effects of pure polyphenolic compounds and of unrefined polyphenolic compounds containing raw extracts obtained from wood bark and knotty stemwood. Tables 4A and 4B represent the antioxidative effect of a few pure polyphenols and of unrefined polyphenolic compounds containing raw extracts, obtained from wood bark and knotty stemwood. Tables 4C and 4D in turn illustrate the peroxide radicals capturing capacity of a few pure polyphenols and of unrefined, polyphenolic compounds containing raw extracts, obtained from wood bark and knotty stemwood. In Tables 4A-4D, it can be observed that the antioxidative and free radical capturing properties of solutions containing pure polyphenol compounds, obtained from wood material in hydrophilic extraction, are often remarkably different from the corresponding properties of compound mixtures containing unrefined raw extract solutions and obtained from wood material in hydrophilic extraction, owing to the synergetic effects of the compounds contained in the compound mixtures in unrefined extracts. The compound mixtures according to the invention are obtained from these unrefined raw extract solutions.

The nature of data set [2]: Peroxide radicals capturing capacity. It counts as biochemical. The settings on record: pure polyphenols isolated from wood material. From the text:
Tables 4C and 4D further represent the free radicals capturing capacity of certain pure polyphenols and unrefined polyphenol extracts with respect to peroxide radicals. Tables 4A and 4B represent the antioxidative effect of a few pure polyphenols and of unrefined polyphenolic compounds containing raw extracts, obtained from wood bark and knotty stemwood. Tables 4C and 4D in turn illustrate the peroxide radicals capturing capacity of a few pure polyphenols and of unrefined, polyphenolic compounds containing raw extracts, obtained from wood bark and knotty stemwood. In Tables 4A-4D, it can be observed that the antioxidative and free radical capturing properties of solutions containing pure polyphenol compounds, obtained from wood material in hydrophilic extraction, are often remarkably different from the corresponding properties of compound mixtures containing unrefined raw extract solutions and obtained from wood material in hydrophilic extraction, owing to the synergetic effects of the compounds contained in the compound mixtures in unrefined extracts. The compound mixtures according to the invention are obtained from these unrefined raw extract solutions.

The conditions of data set [3]: pure polyphenols; values marked 1: Willför et al., J. Agric. Food Chem. 51 (2003); cited from earlier work.
For data set [4] the following is noted: pure polyphenols; values marked 1: Willför et al., J. Agric. Food Chem. 51, 7600-7606 (2003); cited from earlier work.
The next data set relates to human keratinocyte cells. Type of data set: cell-based.

Read-outs that look alike come from different tables or passages of the source.

For the compound `O=C1c2c(O)cc(O)cc2O[C@H](c2ccc(O)cc2)[C@H]1O` [Dihydrokaempferol], the “EC50 which inhibits 50% of the peroxidation of the lipids” value in data set [1] stood at 488 µg/L. Moreover, the “Peroxide radicals capturing capacity” value in data set [2] is on record as 0.78 mmol/g.

Regarding `COc1cc(C[C@H]2C(=O)OC[C@@H]2[C@H](O)c2ccc(O)c(OC)c2)ccc1O` [Hydroxymatairesinol], the “EC50 which inhibits 50% of the peroxidation of the lipids” value in data set [3] is 58 µg/L. Besides, in data set [4], the “Peroxide radicals capturing capacity” value was 5.6 mmol/g.

On to `O=C1C[C@@H](c2ccccc2)Oc2cc(O)cc(O)c21` [Pinosembrin], for which the “EC50 which inhibits 50% of the peroxidation of the lipids” value in data set [1] turned out to be 1135 µg/L. Besides, the “Peroxide radicals capturing capacity” value in data set [2] amounted to 0.49 mmol/g.

With `COc1cc(C[C@H]2CO[C@H](c3ccc(O)c(OC)c3)[C@H]2CO)ccc1O` [Lariciresinol], the “EC50 which inhibits 50% of the peroxidation of the lipids” value in data set [3] was 126 µg/L. For the same compound, the “Peroxide radicals capturing capacity” value in data set [4] was 2.7 mmol/g.

Turning to `O=C1c2c(O)cc(O)cc2O[C@H](c2ccc(O)c(O)c2)[C@H]1O` [Taxifolin], the “EC50 which inhibits 50% of the peroxidation of the lipids” value in data set [3] was 46 µg/L. For the same compound, the “Peroxide radicals capturing capacity” value in data set [4] is recorded as 16 mmol/g.

`Cc1cc(C(C)(C)C)c(O)c(C(C)(C)C)c1` [BTH, butylated hydroxytoluene]: the “EC20 (limit value by which 20% of the cultivated cells died)” value with human keratinocyte cells (human, 24 h) is given as 5.50 ppm. For the same compound, in the data set with human keratinocyte cells (ratio to HMR powder), the “times more cytotoxic than HMR powder” value was 10-20 times.

For `COc1cc([C@H]2c3cc(O)c(OC)cc3C[C@@H](CO)[C@@H]2CO)ccc1O` [Cyclolariciresinol], the “EC50 which inhibits 50% of the peroxidation of the lipids” value in data set [1] was 17 µg/L. In data set [2], the “Peroxide radicals capturing capacity” value came to 12 mmol/g.

Turning to `Oc1ccc([C@H]2Oc3c(ccc(O)c3O)[C@@H](O)[C@H]2O)cc1` [Teracasidine], in data set [1], the “EC50 which inhibits 50% of the peroxidation of the lipids” value is 50 µg/L. The “Peroxide radicals capturing capacity” value in data set [2] was 7.8 mmol/g.

With `Oc1ccc([C@H]2Oc3c(ccc(O)c3O)[C@@H](O)[C@H]2O)cc1O` [Melacasidine], the “EC50 which inhibits 50% of the peroxidation of the lipids” value in data set [1] amounted to 36 µg/L. In addition, in data set [2], the “Peroxide radicals capturing capacity” value is on record as 20 mmol/g.

Turning to `Oc1cc(O)cc(/C=C/c2ccccc2)c1` [Pinosylvin], the “EC50 which inhibits 50% of the peroxidation of the lipids” value in data set [1] turned out to be 50 µg/L. Further, in data set [2], the “Peroxide radicals capturing capacity” value is 0.78 mmol/g.

As to `COc1cc(C[C@H]2COC(=O)[C@]2(O)Cc2ccc(O)c(OC)c2)ccc1O` [Nortrachelogenin], the “EC50 which inhibits 50% of the peroxidation of the lipids” value in data set [3] is 53 µg/L. Besides, the “Peroxide radicals capturing capacity” value in data set [4] is given as 5.9 mmol/g.

For the compound `COc1cc(C[C@H]2COC(=O)[C@@H]2Cc2ccc(O)c(OC)c2)ccc1O` [Matairesinol], the “EC50 which inhibits 50% of the peroxidation of the lipids” value in data set [3] is 99 µg/L. Also, in data set [4], the “Peroxide radicals capturing capacity” value is on record as 2.9 mmol/g.

As to `COc1cc(C[C@@H](CO)[C@H](CO)Cc2ccc(O)c(OC)c2)ccc1O` [Secoisolariciresinol], the “EC50 which inhibits 50% of the peroxidation of the lipids” value in data set [3] was 37 µg/L. For the same compound, the “Peroxide radicals capturing capacity” value in data set [4] was 8.5 mmol/g.

Pinoresinol: the “EC50 which inhibits 50% of the peroxidation of the lipids” value in data set [1] was 20 µg/L. In addition, the “Peroxide radicals capturing capacity” value in data set [2] is 7.8 mmol/g.
